Source: PubChem BioAssay (NCI)
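Cells were grown in 96-well plates and exposed to each compound for 48 hours at five concentrations; endpoints were interpolated linearly between bracketing concentrations, or set to the highest concentration if not reached. At the TGI there is no net growth.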

Columns and labels:
Experiment in all cases: NCI tumour cell line growth inhibition, 48 h
786-0 renal = test system: 786-0 renal
A498 renal = test system: A498 renal
A549 NSCLC = test system: A549 NSCLC
ACHN renal = test system: ACHN renal
BT-549 breast = test system: BT-549 breast
CAKI-1 renal = test system: CAKI-1 renal
CCRF-CEM leukemia = test system: CCRF-CEM leukemia
COLO 205 colon = test system: COLO 205 colon
DU-145 prostate = test system: DU-145 prostate
EKVX NSCLC = test system: EKVX NSCLC
HCC-2998 colon = test system: HCC-2998 colon
HCT-116 colon = test system: HCT-116 colon
HCT-15 colon = test system: HCT-15 colon
HL-60(TB) leukemia = test system: HL-60(TB) leukemia
HOP-62 NSCLC = test system: HOP-62 NSCLC
HOP-92 NSCLC = test system: HOP-92 NSCLC
HS 578T breast = test system: HS 578T breast
HT29 colon = test system: HT29 colon
IGROV1 ovarian = test system: IGROV1 ovarian
K-562 leukemia = test system: K-562 leukemia
KM12 colon = test system: KM12 colon
LOX IMVI melanoma = test system: LOX IMVI melanoma
M14 melanoma = test system: M14 melanoma
MALME-3M melanoma = test system: MALME-3M melanoma
MCF7 breast = test system: MCF7 breast
MDA-MB-435 = test system: MDA-MB-435
MDA-N = test system: MDA-N
MOLT-4 leukemia = test system: MOLT-4 leukemia
NCI-H226 lung = test system: NCI-H226 lung
NCI-H23 lung = test system: NCI-H23 lung
NCI-H460 lung = test system: NCI-H460 lung
NCI-H522 lung = test system: NCI-H522 lung
NCI/ADR-RES ovarian = test system: NCI/ADR-RES ovarian
OVCAR-3 ovarian = test system: OVCAR-3 ovarian
OVCAR-4 ovarian = test system: OVCAR-4 ovarian
OVCAR-5 ovarian = test system: OVCAR-5 ovarian
OVCAR-8 ovarian = test system: OVCAR-8 ovarian
PC-3 prostate = test system: PC-3 prostate
RPMI-8226 leukemia = test system: RPMI-8226 leukemia
RXF 393 renal = test system: RXF 393 renal
SF-268 CNS = test system: SF-268 CNS
SF-295 CNS = test system: SF-295 CNS
SF-539 CNS = test system: SF-539 CNS
SK-MEL-2 melanoma = test system: SK-MEL-2 melanoma
SK-MEL-28 melanoma = test system: SK-MEL-28 melanoma
SK-MEL-5 melanoma = test system: SK-MEL-5 melanoma
SK-OV-3 ovarian = test system: SK-OV-3 ovarian
SN12C renal = test system: SN12C renal
SNB-19 CNS = test system: SNB-19 CNS
SNB-75 CNS = test system: SNB-75 CNS
SR leukemia = test system: SR leukemia
SW-620 colon = test system: SW-620 colon
T-47D breast = test system: T-47D breast
UACC-257 melanoma = test system: UACC-257 melanoma
UACC-62 melanoma = test system: UACC-62 melanoma
UO-31 renal = test system: UO-31 renal

CCOc1cc(NC(C)=O)ccc1C(=O)NNS(=O)(=O)c1ccc(Cl)cc1Cl
TGI (786-0 renal): > 50 µM
TGI (A498 renal): > 50 µM
TGI (A549 NSCLC): > 50 µM
TGI (ACHN renal): > 50 µM
TGI (BT-549 breast): > 50 µM
TGI (CAKI-1 renal): > 50 µM
TGI (CCRF-CEM leukemia): > 50 µM
TGI (COLO 205 colon): > 50 µM
TGI (DU-145 prostate): > 50 µM
TGI (EKVX NSCLC): > 50 µM
TGI (HCC-2998 colon): > 50 µM
TGI (HCT-116 colon): > 50 µM
TGI (HCT-15 colon): > 50 µM
TGI (HL-60(TB) leukemia): > 50 µM
TGI (HOP-62 NSCLC): > 50 µM
TGI (HOP-92 NSCLC): > 50 µM
TGI (HS 578T breast): > 50 µM
TGI (HT29 colon): > 50 µM
TGI (IGROV1 ovarian): > 50 µM
TGI (K-562 leukemia): 21.4 µM
TGI (KM12 colon): > 50 µM
TGI (LOX IMVI melanoma): > 50 µM
TGI (M14 melanoma): > 50 µM
TGI (MALME-3M melanoma): > 50 µM
TGI (MCF7 breast): > 50 µM
TGI (MDA-MB-435): 45.1 µM
TGI (MDA-N): 23.1 µM
TGI (MOLT-4 leukemia): 22 µM
TGI (NCI-H226 lung): > 50 µM
TGI (NCI-H23 lung): > 50 µM
TGI (NCI-H460 lung): > 50 µM
TGI (NCI-H522 lung): > 50 µM
TGI (NCI/ADR-RES ovarian): > 50 µM
TGI (OVCAR-3 ovarian): > 50 µM
TGI (OVCAR-4 ovarian): > 50 µM
TGI (OVCAR-5 ovarian): > 50 µM
TGI (OVCAR-8 ovarian): > 50 µM
TGI (PC-3 prostate): > 50 µM
TGI (RPMI-8226 leukemia): 26.6 µM
TGI (RXF 393 renal): > 50 µM
TGI (SF-268 CNS): > 50 µM
TGI (SF-295 CNS): > 50 µM
TGI (SF-539 CNS): > 50 µM
TGI (SK-MEL-2 melanoma): > 50 µM
TGI (SK-MEL-28 melanoma): > 50 µM
TGI (SK-MEL-5 melanoma): > 50 µM
TGI (SK-OV-3 ovarian): > 50 µM
TGI (SN12C renal): > 50 µM
TGI (SNB-19 CNS): > 50 µM
TGI (SNB-75 CNS): > 50 µM
TGI (SR leukemia): > 50 µM
TGI (SW-620 colon): > 50 µM
TGI (T-47D breast): > 50 µM
TGI (UACC-257 melanoma): > 50 µM
TGI (UACC-62 melanoma): > 50 µM
TGI (UO-31 renal): > 50 µM
